Assay results: patent US20240317735A1, “HYDROISOQUINOLINE OR HYDRONAPHTHYRIDINE COMPOUNDS FOR THE TREATMENT OF AUTOIMMUNE DISEASE” (Hoffmann-La Roche Inc., priority 2020, published 2024)

Columns and labels:
TLR9 = biological target: T1, TLR9 (Homo sapiens, UniProt Q9NR96); test: Human PBMC cell-based assay (CpG ODN 2216 stimulation); set-up: These cells express TLR7, TLR8, or TLR9, and therefore are natural responders to respective ligand stimulation; endogenous in cells; host or cells: human PBMC from healthy donor whole blood; details: CpG ODN 2216 at 1 μM, overnight, read-out: hPBMC/TLR9 IC50
T1 sequence (Q9NR96 26-1032): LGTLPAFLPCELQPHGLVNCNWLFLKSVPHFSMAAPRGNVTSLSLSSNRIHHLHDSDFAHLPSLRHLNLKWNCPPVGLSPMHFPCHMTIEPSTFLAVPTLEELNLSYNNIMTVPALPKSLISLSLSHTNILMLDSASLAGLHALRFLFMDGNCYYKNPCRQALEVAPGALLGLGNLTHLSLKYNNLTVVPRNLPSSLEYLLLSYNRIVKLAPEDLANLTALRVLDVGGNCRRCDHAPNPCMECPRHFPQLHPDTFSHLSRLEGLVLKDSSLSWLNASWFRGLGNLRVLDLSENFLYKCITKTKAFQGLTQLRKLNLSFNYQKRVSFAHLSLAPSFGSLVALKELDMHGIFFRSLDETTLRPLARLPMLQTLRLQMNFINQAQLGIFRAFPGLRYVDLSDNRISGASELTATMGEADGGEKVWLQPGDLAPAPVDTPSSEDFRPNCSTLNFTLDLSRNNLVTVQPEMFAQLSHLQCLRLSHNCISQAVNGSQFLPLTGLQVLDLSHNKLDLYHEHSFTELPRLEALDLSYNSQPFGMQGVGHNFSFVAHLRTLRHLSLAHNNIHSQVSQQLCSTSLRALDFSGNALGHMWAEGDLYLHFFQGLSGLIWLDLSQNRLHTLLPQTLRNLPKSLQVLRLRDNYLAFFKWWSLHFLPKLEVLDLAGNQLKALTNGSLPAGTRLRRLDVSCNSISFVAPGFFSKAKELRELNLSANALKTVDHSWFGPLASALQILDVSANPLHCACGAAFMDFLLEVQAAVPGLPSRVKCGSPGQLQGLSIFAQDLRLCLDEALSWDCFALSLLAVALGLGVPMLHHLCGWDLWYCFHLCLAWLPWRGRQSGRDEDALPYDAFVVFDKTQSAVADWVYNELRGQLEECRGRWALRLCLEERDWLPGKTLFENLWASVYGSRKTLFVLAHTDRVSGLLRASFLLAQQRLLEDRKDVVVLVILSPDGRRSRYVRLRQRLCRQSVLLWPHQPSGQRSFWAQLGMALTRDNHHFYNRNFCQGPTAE
Description: Unlike the HEK reporter cell lines, human peripheral blood mononuclear cell (PBMC) represents primary human immune cells in blood mainly consisting of lymphocytes, monocytes, and dendritic cells. These cells express TLR7, TLR8, or TLR9, and therefore are natural responders to respective ligand stimulation. Upon activation of these TLRs, PBMCs secrete similar cytokines and chemokines in vitro and in vivo, and therefore the in vitro potency of a TLR7/8/9 antagonist in human PBMC is readily translatable to its pharmacodynamics response in vivo.
Human peripheral blood mononuclear cells (PBMC) were isolated from freshly-drawn lithium-heparinized (Lithium Heparin Plus blood Collection tube, BD Vacutainer®) healthy donor whole blood by density gradient (Ficoll-Paque™ PLUS, GE Healthcare life Sciences). Briefly, 50 mL of blood was diluted with 25 mL PBS (without Ca^2+, Mg^2+) in a 50 mL conical tube with porous barrier (Leucosep tube, Greiner bio-one), where 15.5 mL Ficoll-Paque was under laid after spinning. Tubes were centrifuged for 20 minutes at 800×g (1946 rpm) with the brake in the off position, and PBMC were collected from the buffy coat. Cells were then washed twice in PBS, and red blood cells were lysed by suspension in 2 mL (Red Blood Cell Lysis Buffer, Alfa Aesar) for 5-10 minutes at room temperature. After a final wash in PBS, PBMC were resuspended at a final concentration of 2×10^6 cells/mL in RPMI-1640 media with GlutaMAX™ (Gibco) supplemented with 10% Fetal Bovine Serum (Sigma) and plated at 150 μL/well (3×10^5 cells/well) in tissue culture treated round bottom 96-well plates (Corning Incorporated). Antagonist compounds (compounds of this invention) solubilized and serial diluted in 100% DMSO were added in duplicate to cells to yield a final concentration of 1% DMSO (v/v). PBMC were incubated with antagonist compounds for 30 minutes at 37° C., 5% CO2 before adding various TLR agonist reagents in 48 μL complete media per well as follows (final concentrations indicated): CpG ODN 2216 (InvivoGen) at 1 μM for TLR9, ORN 06/LyoVec (InvivoGen) at […] for TLR8 and R848 (InvivoGen) at 1p g/mL for TLR7 and TLR8. PBMC were incubated overnight at 37° C. with 5% CO2. Cell culture supernatants were collected, and levels of various human cytokines were assessed by Luminex assay (ProcartaPlex™ Multiplex Immunoassay, Invitrogen) or ELISA procedure according to the manufacturer's recommended protocol (eBioscience, ThermoFisher Scientific). Viability of the cells was also checked with Cell Viability Assay (CellTiter Glo®Luminescent Cell Viability Assay, Promega).

hERG channel = biological target: T2, hERG channel (Homo sapiens, UniProt Q12809); test: hERG channel inhibition assay (patch-clamp, CHOhERG cells); assay type: cell-based; details: for IC50 / IC20: CHOhERG cells, whole-cell patch-clamp; for IC20: human, CHO cells stably expressing hERG (CHOhERG); for hERG IC20/TLR7 IC50 / hERG IC20/TLR8 IC50 / hERG IC20/TLR9 IC50: safety ratio; for hERG IC20/TLR7 IC50: hERG IC20 over HEK/hTLR7 IC50; for hERG IC20/TLR8 IC50: hERG IC20 over HEK/hTLR8 IC50; for hERG IC20/TLR9 IC50: hERG IC20 over HEK/hTLR9 IC50
T2 construct: expressed in transfected cells; host or cells: CHO (CHOhERG)
T2 sequence (Q12809 whole entry): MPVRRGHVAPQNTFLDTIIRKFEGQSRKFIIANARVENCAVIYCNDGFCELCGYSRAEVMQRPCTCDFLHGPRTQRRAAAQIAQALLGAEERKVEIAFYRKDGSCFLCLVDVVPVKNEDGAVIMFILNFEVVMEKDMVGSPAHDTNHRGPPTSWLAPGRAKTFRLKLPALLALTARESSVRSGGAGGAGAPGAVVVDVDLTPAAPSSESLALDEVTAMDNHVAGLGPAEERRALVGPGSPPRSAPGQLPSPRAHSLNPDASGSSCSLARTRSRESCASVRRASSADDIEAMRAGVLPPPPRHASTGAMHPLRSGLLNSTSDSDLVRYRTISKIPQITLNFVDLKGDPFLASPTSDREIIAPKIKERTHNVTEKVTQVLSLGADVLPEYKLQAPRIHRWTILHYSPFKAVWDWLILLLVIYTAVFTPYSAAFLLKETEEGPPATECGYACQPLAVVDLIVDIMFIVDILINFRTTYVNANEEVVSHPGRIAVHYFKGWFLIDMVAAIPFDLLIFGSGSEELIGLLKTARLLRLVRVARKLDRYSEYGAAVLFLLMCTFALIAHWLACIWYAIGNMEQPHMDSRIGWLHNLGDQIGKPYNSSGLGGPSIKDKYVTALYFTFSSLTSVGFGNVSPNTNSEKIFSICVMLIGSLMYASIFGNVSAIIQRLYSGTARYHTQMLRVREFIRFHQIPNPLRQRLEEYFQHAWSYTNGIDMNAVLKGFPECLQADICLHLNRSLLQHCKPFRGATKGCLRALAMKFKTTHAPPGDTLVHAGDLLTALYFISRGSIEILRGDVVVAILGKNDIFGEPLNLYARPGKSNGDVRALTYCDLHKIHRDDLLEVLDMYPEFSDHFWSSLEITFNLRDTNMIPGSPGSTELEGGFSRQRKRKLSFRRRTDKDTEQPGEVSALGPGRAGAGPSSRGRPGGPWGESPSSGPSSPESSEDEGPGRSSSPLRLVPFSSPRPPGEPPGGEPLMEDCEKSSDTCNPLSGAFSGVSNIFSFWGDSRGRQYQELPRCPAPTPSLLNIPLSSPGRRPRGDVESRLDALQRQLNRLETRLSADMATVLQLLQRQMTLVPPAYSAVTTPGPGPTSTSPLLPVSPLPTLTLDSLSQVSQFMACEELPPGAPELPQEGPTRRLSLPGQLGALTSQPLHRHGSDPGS
Method: The hERG K^+ channels were cloned in humans and stably expressed in a CHO (Chinese hamster ovary) cell line. CHOhERG cells were used for patch-clamp (voltage-clamp, whole-cell) experiments. Cells were stimulated by a voltage pattern to activate hERG channels and conduct IKhERG currents (rapid delayed outward rectifier potassium current of the hERG channel). After the cells were stabilized for a few minutes, the amplitude and kinetics of IKhERG were recorded at a stimulation frequency of 0.1 Hz (6 bpm). Thereafter, the test compound was added to the preparation at increasing concentrations. For each concentration, an attempt was made to reach a steady-state effect, usually, this was achieved within 3-10 min at which time the next highest concentration was applied. The amplitude and kinetics of IKhERG are recorded in each concentration of the drug which were compared to the control values (taken as 100%). (references: Redfern W S, Carlsson L, Davis A S, Lynch W G, MacKenzie I, Palethorpe S, Siegl P K, Strang I, Sullivan A T, Wallis R, Camm A J, Hammond T G. 2003; Relationships between preclinical cardiac electrophysiology, clinical QT interval prolongation and torsade de pointes for a broad range of drugs: evidence for a provisional safety margin in drug development. Cardiovasc. Res. 58:32-45, Sanguinetti MC, Tristani-Firouzi M. 2006; hERG potassium channels and cardiac arrhythmia. Nature 440:463-469, Webster R, Leishman D, Walker D. 2002; Towards a drug concentration effect relationship for QT prolongation and torsades de pointes. Curr. Opin. Drug Discov. Devel. 5:116-26).

| SMILES | IC50 (TLR9) [nM] | IC50 (hERG channel) [nM] | IC20 (hERG channel) [nM] | hERG IC20/TLR7 IC50 (hERG channel) | hERG IC20/TLR8 IC50 (hERG channel) | hERG IC20/TLR9 IC50 (hERG channel) |
| --- | --- | --- | --- | --- | --- | --- |
| Cc1cc(N2Cc3ccc(N4CCC5(CCNCC5)CC4)cc3C(C)C2)c2cnn(C)c2n1 (centres unmarked) [Example 5, 3-[2-(1,6-dimethylpyrazolo[3,4-b]pyridin-4-yl)-4-methyl-3,4-dihydro-1H-isoquinolin-6-yl]-3,9-diazaspiro[5.5]undecane] | 156 | – | – | – | – | – |
| Cc1cc(N2Cc3ccc(OC[C@@H]4CNCCN4)cc3[C@@H](C)C2)c2cnn(C)c2n1 [Example 31, (4R)-2-(1,6-dimethylpyrazolo[3,4-b]pyridin-4-yl)-4-methyl-6-[[(2S)-piperazin-2-yl]methoxy]-3,4-dihydro-1H-isoquinoline] | 214 | > 20000 | 8500 | 354.2 | 4250.0 | 81.0 |
| CO[C@H]1CN(c2cc3c(cn2)CN(c2cc(C)nc4c2cnn4C)C[C@@H]3C)CC[C@@H]1N [Example 73, (3S,4S)-3-methoxy-1-[(5R)-7-(1,6-dimethylpyrazolo[3,4-b]pyridin-4-yl)-5-methyl-6,8-dihydro-5H-2,7-naphthyridin-3-yl]piperidin-4-amine] | 340 | > 20000 | 6900 | 1725.0 | 3450.0 | 60.0 |
| C[C@H]1CN(c2ccnc3c2cnn3C)Cc2ccc(OC3CN(C4CCNCC4)C3)cc21 [Example 41, (4R)-4-methyl-2-(1-methylpyrazolo[3,4-b]pyridin-4-yl)-6-[1-(4-piperidyl)azetidin-3-yl]oxy-3,4-dihydro-1H-isoquinoline] | 286 | > 20000 | 5100 | 728.6 | 637.5 | 108.5 |
| C[C@H]1CN(c2ccnc3c2cnn3C)Cc2ccc(N3CCN(c4cc5c(cn4)CCNC5)CC3)cc21 [Example 9, 7-[4-[(4R)-4-methyl-2-(1-methylpyrazolo[3,4-b]pyridin-4-yl)-3,4-dihydro-1H-isoquinolin-6-yl]piperazin-1-yl]-1,2,3,4-tetrahydro-2,6-naphthyridine] | 326 | – | – | – | – | – |
| Cc1cc(N2Cc3cnc(N4CCNCC4)cc3[C@@H](C)C2)c2cnn(C)c2n1 [Example 74, (4R)-2-(1,6-dimethylpyrazolo[3,4-b]pyridin-4-yl)-4-methyl-6-piperazin-1-yl-3,4-dihydro-1H-2,7-naphthyridine] | 250 | – | – | – | – | – |
| Cc1cc(N2Cc3ccc(N4C[C@@H](N)[C@H](O)C4)cc3[C@@H](C)C2)c2cnn(C)c2n1 [Example 47, trans-4-amino-1-[(4R)-2-(1,6-dimethylpyrazolo[3,4-b]pyridin-4-yl)-4-methyl-3,4-dihydro-1H-isoquinolin-6-yl]pyrrolidin-3-ol] | 290 | – | – | – | – | – |
| CO[C@H]1CN(c2ccc3c(n2)[C@@H](C)CN(c2cc(C)nc4c2cnn4C)C3)CC[C@@H]1N [Example 65, (3S,4S)-3-methoxy-1-[(8S)-6-(1,6-dimethylpyrazolo[3,4-b]pyridin-4-yl)-8-methyl-7,8-dihydro-5H-1,6-naphthyridin-2-yl]piperidin-4-amine] | 371 | – | – | – | – | – |
| CC1CN(c2ccnc3c2cnn3C)Cc2ccc(N3CCC4(CCNCC4)CC3)cc21 (centres unmarked) [Example 4, 3-[4-methyl-2-(1-methylpyrazolo[3,4-b]pyridin-4-yl)-3,4-dihydro-1H-isoquinolin-6-yl]-3,9-diazaspiro[5.5]undecane] | 265 | – | – | – | – | – |
| Cn1ncc2c(N3CCc4cc(N5CCNCC5)ccc4C3)ccnc21 [Example 3, 2-(1-methylpyrazolo[3,4-b]pyridin-4-yl)-6-piperazin-1-yl-3,4-dihydro-1H-isoquinoline] | 434 | > 20000 | > 10000 | >526.3 | >178.6 | >54.1 |
| CO[C@@H]1CN(c2ccc3c(c2)[C@@H](C)CN(c2cc(C)nc4c2cnn4C)C3)C[C@H]1N [Example 23, (3R,4R)-4-methoxy-1-[(4R)-2-(1,6-dimethylpyrazolo[3,4-b]pyridin-4-yl)-4-methyl-3,4-dihydro-1H-isoquinolin-6-yl]pyrrolidin-3-amine] | 240 | – | – | – | – | – |
| Cc1cc(N2Cc3ccc(N4CCC(N)CC4)nc3[C@@H](C)C2)c2cnn(C)c2n1 [Example 58, 1-[(8S)-6-(1,6-dimethylpyrazolo[3,4-b]pyridin-4-yl)-8-methyl-7,8-dihydro-5H-1,6-naphthyridin-2-yl]piperidin-4-amine] | 277 | – | – | – | – | – |
| C[C@H]1CN(c2ccnc3c2cnn3C)Cc2ccc(N3CCC(N4CC(N)C4)CC3)cc21 [Example 28, 1-[1-[(4R)-4-methyl-2-(1-methylpyrazolo[3,4-b]pyridin-4-yl)-3,4-dihydro-1H-isoquinolin-6-yl]-4-piperidyl]azetidin-3-amine] | 271 | – | – | – | – | – |
| C[C@H]1CN(c2ccnc3c2cnn3C)Cc2ccc(N3CCN[C@@H](CO)C3)cc21 [Example 50, [(2R)-4-[(4R)-4-methyl-2-(1-methylpyrazolo[3,4-b]pyridin-4-yl)-3,4-dihydro-1H-isoquinolin-6-yl]piperazin-2-yl]methanol] | 475 | – | – | – | – | – |
| CO[C@@H]1CN(c2ccc3c(n2)[C@@H](C)CN(c2cc(C)nc4c2cnn4C)C3)C[C@H]1N [Example 63, (3R,4R)-4-methoxy-1-[(8S)-6-(1,6-dimethylpyrazolo[3,4-b]pyridin-4-yl)-8-methyl-7,8-dihydro-5H-1,6-naphthyridin-2-yl]pyrrolidin-3-amine] | 430 | – | – | – | – | – |
